Measurements as given in article PMC11187126, “Structure and dynamics of the pyroglutamylated RF-amide peptide QRFP receptor GPR103” (Nature Communications, 2024).
Like-named read-outs stand apart in the source and are kept apart here. No end group written: not given here.

Target: T1, GPR103 E203^ECL2A (Homo sapiens, UniProt Q96P65, E203A)
T1 construct: we used human full-length QRFPR-encoding plasmids; expressed in transfected cells; host or cells: HEK293 cells, pCAGGS vector
T1 sequence (Q96P65 1-431 E203A): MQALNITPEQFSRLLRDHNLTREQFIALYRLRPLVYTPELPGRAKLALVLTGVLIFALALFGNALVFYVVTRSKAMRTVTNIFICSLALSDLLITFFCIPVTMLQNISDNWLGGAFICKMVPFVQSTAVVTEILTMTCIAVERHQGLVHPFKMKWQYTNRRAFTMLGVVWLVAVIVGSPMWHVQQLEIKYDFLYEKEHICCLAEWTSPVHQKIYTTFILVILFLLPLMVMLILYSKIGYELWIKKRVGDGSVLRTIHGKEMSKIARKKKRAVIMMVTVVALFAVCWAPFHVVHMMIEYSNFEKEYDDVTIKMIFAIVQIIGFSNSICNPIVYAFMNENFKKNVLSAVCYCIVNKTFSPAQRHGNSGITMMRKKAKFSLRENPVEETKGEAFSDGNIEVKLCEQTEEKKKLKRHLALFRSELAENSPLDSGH
Assay: TGFα shedding assay; Exp. level >WT (1:1)
Assay type: cell-based
Protocol: For the TGFα shedding assay and the flow cytometry analysis, we used human full-length QRFPR-encoding plasmids. Specifically, GPR103 was N-terminally modified with an HA signal sequence followed by a FLAG epitope and then a flexible linker ([…]; the FLAG epitope is underlined) and inserted into the pCAGGS vector. Plasmid encoding GPR103 mutants were generated using Quickchange Site-Directed Mutagensis kit (Agilent).
The TGFα shedding assay was performed as described previously with minor modifications. Plasmid transfection was performed in a 6-well plate with a mixture of 500 ng (per well in a 6-well plate) AP-TGFα-encoding plasmid and 200 ng GPR103-encoding plasmid. After 1-day culture, the transfected cells were harvested by trypsinization, pelleted by centrifugation at 190 × g for 5 min, and washed once with 5 mM HEPES (pH 7.4)-containing Hank’s Balanced Salt Solution (HBSS). After centrifugation, the cells were resuspended in 8 mL of the HEPES-containing HBSS. The cell suspension was seeded in a 96-well culture plate (cell plate) at a volume of 90 μL (per well hereafter) and incubated in a 37 °C incubator with 5% CO2 for 30 min. […] After spinning the cell plates at 190 × g for 2 min, 80 μL of conditioned media was transferred to an empty 96-well plate (conditioned media (CM) plate). Then, 80 μL of AP reaction solution (10 mM p-nitrophenylphosphate (p-NPP), 120 mM Tris-HCl (pH 9.5), 40 mM NaCl, and 10 mM MgCl2) was dispensed into the cell plates and the CM plates. Absorbance at 405 nm of the plates was measured using a microplate reader (SpectraMax 340 PC384, Molecular Devices) before and after 1-h incubation at room temperature. Ligand-induced AP-TGFα release was calculated by subtracting spontaneous AP-TGFα release signal from ligand-induced AP-TGFα release signal. The AP-TGFα release signals were fitted to a four-parameter sigmoidal concentration–response curve, using the Prism 10 software (GraphPad Prism). For each replicate experiment, the pEC50 parameter (negative logarithmic values of EC50 values) of the individual GPR103 mutants were normalized to that of the wild-type GPR103 performed in parallel, and resulting ∆pEC50 values were used to denote ligand response activity of the mutants. […]
Exp. le vel: WT (1:5 0)Exp. le vel: WT (1:5 0)Exp. le vel: WT (1:5 0)Exp. le vel: WT (1:2 0)Exp. le vel: WT (1:2 0)Exp. le vel: WT (1:1 0) […]
L1 4N - t e r mA F2 5N - t e r mA I 2 6N - t e r mA Y 2 9N - t e r mA C 9 82 .5 7A T10 22 .6 1A Exp . l eve l: WT (1 :5)Exp . l evel : >WT (1 :1)Exp. le vel: WT (1:2 0)Exp. le vel: WT (1:2 0)Exp. le vel: WT (1:5 0)Exp . l eve l: WT (1 :1) […]
Exp. le vel: WT (1:1 0)Exp. le vel: WT (1:2 0) C 1 1 83 .2 5AExp. le vel: WT (1:5 0)Exp. le vel: WT (1:5 0)Exp. le vel: WT (1:2 0)Exp . l eve l: WT (1 :5) […]
Exp. le vel: WT (1:5 0)Exp. le vel: WT (1:1 0)Exp. le vel: WT (1:5 0) E203ECL2AExp . l evel : >WT (1 :1)Exp. le vel: WT (1:5 0)Exp. le vel: WT (1:5 0) […]
Exp . l eve l: WT (1 :1) F28Exp. le vel: WT (1:5 0) C 2 8 56 .4 7AExp. le vel: WT (1:2 0) WExp. le vel: WT (1:2 0) F28Exp. le vel: WT (1:5 0)Exp . l evel : >WT (1 :1) […]
Exp. le vel: WT (1:5 0)Exp. le vel: WT (1:5 0) C 3 2 77 .4 8AExp . l eve l: WT (1 :5)Exp . l evel : >WT (1 :1)Exp . l evel : >WT (1 :1) […]
Suppl eme nt ary Figure 1 | Mutational analysis of GPR103. […]
mutants. Data are presented as mean values ± SEM, normally n=3-5; dots), each performed in triplicate. b-d Cell-surface expression (b) and QRFP26-in-duced activation of GPR103 (c, d) were analyzed by the flow cytometry and the TGFα shedding assay, respectively. From the concentration–response curves (a), Emax (c) and ΔpEC50 (d) values relative to the wild type were calculated. Colors in the mutant bars indicate an expression level matching to that of titrated wild type. Statistical analyses were performed using the ordinary one-way ANOVA followed by Dunnett tests with the expression-matched […]

## TSGPLGNLAEELNGYSRKKGGFSFRF-NH2 [QRFP26]
Exp. #1
  Emax: 96.63 % WT
Exp. #2
  Emax: 100.59 % WT
Exp. #3
  Emax: 99.12 % WT
mean, read-out: Emax
  Emax: 98.8%
N = 3
  EC50: 0.288 µM
N = 3, read-out: Emax
  Emax: 101 ± 0.94%
